For this test, the system named is Thrombozytenaggregation. Put plainly: Antithrombotic effect: collagen-induced platelet aggregation (Born and Cross) in platelet-rich plasma. In kind it is cell-based. The following applies: human platelet-rich plasma, 10 min preincubation at 37 °C, 50% change of optical density, read-out: Hemmung der Plättchenaggregation EC50. The source says:
2. Antithrombotische Wirkung: Methodik Die Thrombozytenaggregation wird nach der Methode von Born und Cross (J. Physiol. 170, 397 (1964)) in plättchenreichem Plasma gesunder Versuchspersonen gemessen. Zur Gerinnungshemmung wird das Blut mit Natriumcitrat 3,14 % im Volumenverhältnis 1:10 versetzt. Collagen-induzierte Aggregation Der […] Substanz photometrisch gemessen und registriert. Aus dem Neigungswinkel der Dichtekurve wird auf die Aggregationsgeschwindigkeit geschlossen. Der Punkt der Kurve, bei dem die größte Lichtdurchlässigkeit vorliegt, dient zur Berechnung der "optical density". Die Collagen-Menge wird möglichst gering gewählt, aber doch so, daß sich eine irreversibel verlaufende Reaktionskurve ergibt. Verwendet wird das handelsübliche Collagen der Firma Hormonchemie, München. Vor der Collagen-Zugabe wird das Plasma jeweils 10 Minuten mit der Substanz bei 37 ° C inkubiert. Aus den erhaltenen Meßzahlen wird graphisch eine EC50 bestimmt, die sich auf eine 50%ige Änderung der "optical density" […].

Counter-ions that a name gives are not always drawn.

On to `COC(=O)CCNC(=O)c1ccc2c(c1)nc(CCC1CCNCC1)n2C` [Beispiel 2, 5-[(2-Methoxycarbonyl-ethyl)-aminocarbonyl]-1-methyl-2-[2-(4-piperidinyl)-ethyl]-benzimidazol], for which the IC50 is 2000 nM.

For the compound `COC(=O)CCCCn1c(=O)c2nc(-c3ccc(C(=N)N)cc3)n3c2n(c1=O)CCC3` [7(12), 2-(4-Amidino-phenyl)-9-(4-methoxycarbonyl-butyl)-8,10-dioxo-5,6-dihydro-4H,9H-pyrimido[1,2,3-cd]-purin], the IC50 stood at 660 nM.

As to `Cn1c(C(=O)NC2CCNCC2)nc2cc(C(=O)NCCC(=O)O)ccc21` [1(1), 5-[(2-Carboxy-ethyl)-aminocarbonyl]-1-methyl-2-[(4-piperidinyl)-aminocarbonyl]-benzimidazol-dihydro-bromid], the IC50 was greater than 10000 nM.

For `Cn1c(CCC2CCNCC2)nc2c(=O)n(CCCCC(=O)O)c(=O)n(C)c21` [1(49), 1-(4-Carboxy-butyl)-3,9-dimethyl-8-[2-(4-piperidinyl)-ethyl]-xanthin-dihydrobromid], the IC50 was 150 nM.

`N=C(N)c1ccc(-c2nc3c(=O)n(CCCCC(=O)O)c(=O)n4c3n2CCC4)cc1` [1(61), 2-(4-Amidino-phenyl)-9-(4-carboxy-butyl)-8,10-dioxo-5,6-dihydro-4H,9H-pyrimido[1,2,3-cd]purin-dih-ydrobromid]: the IC50 worked out at 110 nM.

Regarding `Cn1c(=O)n(CCCCC(=O)O)c(=O)c2[nH]c(CCC3CCNCC3)nc21` [1(48), 1-(4-Carboxy-butyl)-3-methyl-8-[2-(4-piperidinyl)ethyl]-xanthin-dihydrochlorid], the IC50 stood at 250 nM.

Consider `Cn1c(CCC2CCNCC2)nc2cc(C(=O)NCCC(=O)O)ccc21` [Beispiel 1, 5-[(2-Carboxy-ethyl)-aminocarbonyl]-1-methyl-2-[2-(4-piperidinyl)-ethyl]-benzimidazol-dihydrobromid], for which the IC50 came to 430 nM.

Consider `Cn1c(=O)n(CCCCC(=O)O)c(=O)c2[nH]c([C@H]3CC[C@H](CN)CC3)nc21` [1(64), 8-(trans-4-Aminomethyl-cyclohexyl)-1-(4-carboxy-butyl)-3-methyl-xanthin-dihydrochlorid], for which the IC50 worked out at 30000 nM.

For `Cn1c(-c2ccc(C3CCNCC3)cc2)nc2cc(C=CC(=O)O)ccc21` [1(67), 5-(2-Carboxy-ethenyl)-1-methyl-2-[4-(4-piperidinyl)-phenyl]-benzimidazol-dihydrobromid], the IC50 came out at 2300 nM.

With `O=C(O)CCCCn1c(=O)c2nc(CCC3CCNCC3)n3c2n(c1=O)CCC3` [1(63), 9-(4-Carboxy-butyl)-2-[2-(4-piperidinyl)-ethyl]-8,10-dioxo-5,6-dihydro-4H,9H-pyrimido[1,2,3-cd]purin-dihydrobromid], the IC50 was determined as 4400 nM.

`Cn1c(CCC2CCNCC2)nc2cc(C(=O)CCCC(=O)O)ccc21` [1(15), 5-(4-Carboxy-1-oxo-butyl)-1-methyl-2-[2-(4-piperidinyl)-ethyl]-benzimidazol-dihydrobromid]: the IC50 worked out at 1250 nM.

Regarding `Cn1c(CCC2CCNCC2)nc2c1c(=O)n(CCCCC(=O)O)c(=O)n2C` [6(12), 1-(4-Carboxy-butyl)-3,7-dimethyl-8-[2-(4-piperidinyl)-ethyl]-xanthin], the IC50 is 6400 nM.

The values are drawn from patent publication EP0611660A2, “Condensed 5-membered heterocycles, process for their preparation and medicines containing these compounds” (Dr. Karl Thomae GmbH, priority 1993, dated 1994).
